Columns and labels:
[1] = tested on: PRL-3+ and PRL-3− cancer cells; test: In vitro cancer cell growth assay; assay type: cell-based; details: PRL-3+ and PRL-3− cells; PRL3-zumab up to 50 mg/mL
advanced HCC = details: cited from earlier work
[2] = tested on: PRL-3^+ SNU-484 orthotopic gastric tumors; test: Orthotopic gastric cancer model, SNU-484; assay type: in vivo, Balb/C nude mice
Protocol: Eight-week old male Balb/C nude mice obtained from the Biological Resource Centre (A*STAR, Singapore) were used for all animal models in this study. […] The stomach was taken out through the abdominal incision by surgical forceps, and cancer cells were injected into the subserosa layer. Subsequently, the stomach was placed back and the abdomen was sutured back in layers. […] The treatment regime commenced on day 2 post-inoculation of cancer cells in the gastric subserosa layer. […] PBS was used as a control in “untreated” mice. […] Tumor volumes were calculated using the formula: volume=0.4×tumor length×tumor width×tumor width.
10 μm-thick cryosection slides were fixed with 4% formalin for 20 min and incubated with 1% H2O2-PBS in the dark for 5 min. Washed slides were then blocked in PBS containing 10% goat serum and 1% BSA (Sigma) for 1 h at RT. Subsequently, slides were washed four times in PBS-0.05% Tween-20 with gentle shaking and incubated with goat anti-human labeled polymer-HRP (Dako) for 2 h before washing extensively and incubating with substrate-chromogen solution (Dako) for 10-20 min in the dark. Mounted slides were examined using a brightfield microscope (Olympus) and representative images were captured.

[3] = set-up: species or system Balb/C nude mice; details: mouse, in vivo
Protocol: WBC staining of mouse blood smears: After smearing a thin layer from a drop of fresh mouse blood on a glass slide, slides were baked at 37° C. for 1 h before flooding with modified Wright Giemsa stain (Sigma) for 1 min followed by washing with deionized water for 3 min. After drying, the stained slide was observed under microscope, with WBCs stained blue. Estimation of total WBC was performed under light microscopy (Olympus) by counting in ten visual fields in each slide and calculation using the equation WBCs/μl=(total number of counted WBC/number of fields)×2000. Full blood counts: Hematological analysis of mice samples was conducted by Quest Laboratories (Singapore).
We tested four treatment protocols: PBS control (Group 1), PRL3-zumab monotherapy (Group 2), PRL3-zumab+5-FU combination therapy (Group 3), or 5-FU monotherapy (Group 4). According to the treatment protocol, bi-weekly doses of PRL3-zumab (100 μg/dose) or 5-FU (30 mg/kg/dose) were administered individually, or in combination, intravenously into groups of nude mice carrying orthotopic PRL-3^+ SNU-484 gastric tumors.

## N.N.[Cl][Pt][Cl] [cisplatin]
[1]
  cancer cell growth in vitro: dose-dependent, nonspecific cell killing

## CNC(=O)c1cc(Oc2ccc(NC(=O)Nc3ccc(Cl)c(C(F)(F)F)c3)cc2)ccn1 [Sorafenib]
Advanced HCC
  extended median survival: 2.8 months

## O=c1[nH]cc(F)c(=O)[nH]1 [5-FU, 5-fluorouracil]
[2]; four-group study, bi-weekly i.v. PRL3-zumab 100 μg/dose and/or 5-FU 30 mg/kg/dose, Day 28, n=5 per group
  mean tumor volume: 1.76±0.52 cm^3
[2]; tumor sections, compared to untreated
  numbers of infiltrating B cells and NK cells (immunofluorescence): lack of B or NK cell infiltration
[3]
  haematological profile (full blood counts): reduced neutrophil, lymphocyte, and monocyte counts
  overall animal activity: reduction in overall animal activity
  reduction in peripheral WBC counts compared to control or PRL3-zumab monotherapy: 5 fold
